The series in a line: in vitro. As to conditions: human, hela cells, % viability.
With `O=C(c1ccccc1F)N1C[C@H](c2ccsc2)[C@H]2CN(Cc3cccc(F)c3)CC[C@H]21` [CBK285660], the viability at 28.5 h, 10 µM was 120%. As for `CCOP(=O)(O)c1c([N+](=O)[O-])cc(C(F)(F)F)cc1[N+](=O)[O-]` [CBK261106G], the figure is 103%; as for `O=C(c1ccc2c(c1)CCO2)N1CCC(Sc2ccc(-c3ccccc3)cc2)CC1` [CBK131953], 94.8%; as for `Cc1ccc2c(c1)C(=O)CC1(CCN(C(=O)Cc3c(C)[nH]c(=O)[nH]c3=O)CC1)O2` [CBK285688], 91.6%. Turning to `Cc1cc(C)[n+](-c2ccccc2O)c(C)c1` [CBK005458G], the viability at 28.5 h, 10 µM was found to be 116%.

On to `CC(C)(C)c1nnc2sc(-c3cccnc3)nn12` [CBK287289], for which the viability at 28.5 h, 10 µM turned out to be 112%.

As to `O=C(c1c[nH]nc1-c1cc2ccccc2o1)N1CCC(O)(C(F)(F)F)C1` (stereo not drawn) [CBK305549], the viability at 28.5 h, 10 µM is 90.7%. Turning to `Cc1cc2ccccc2n1CCCNC(=O)c1ccc(=O)n(C)c1` [CBK282982], the viability at 28.5 h, 10 µM amounted to 104%. `c1cncc(CNc2nccnc2-c2ccsc2)c1` [CBK089314]: the viability at 28.5 h, 10 µM was 113%. Consider `CCN(Cc1ccc(C#N)cc1F)C(=O)Nc1cnn(CC)c1` [CBK305702], for which the viability at 28.5 h, 10 µM was found to be 93.1%.

For `Brc1ccccc1-c1nnc2n1CCCCC2` [CBK200092], the viability at 28.5 h, 10 µM was 90.9%. As for `Cc1ccc(-n2c(SCC(=O)N3CCCCC3)nnc2-c2cc(Br)ccc2O)c(C)c1` [CBK269070], the figure is 94.7%. On to `CC1(C)Cc2c(oc(N)c2C#N)CO1` [CBK014395], for which the viability at 28.5 h, 10 µM stood at 101%.

With `Cn1cccc1C(=O)OCC(=O)N1CCCCC1` [CBK305903], the viability at 28.5 h, 10 µM was determined as 99.5%.

As for `CCOc1ccc(C)cc1S(=O)(=O)NCCc1c(C)[nH]c2c(Cl)cccc12` [CBK268859], the viability at 28.5 h, 10 µM was 86.8%. As for `CC(=O)c1ccc(-c2nccnc2N[C@@H]2CCN(Cc3ccccc3)C2)s1` [CBK036981], the viability at 28.5 h, 10 µM came to 104%. As for `CC(C)N(CC(=O)N(c1ccccc1)c1ccccc1)C(C)C` [CBK013303C], the figure is 96.6%; as for `CC(Oc1ccccc1)C(=O)Nc1c[nH]c(=O)[nH]c1=O` (stereo not drawn) [CBK266524], 72.3%; as for `COc1cccc(NS(=O)(=O)c2cc(CC(=O)O)ccc2OC)c1` [CBK298333], 93.9%. As for `COc1ccccc1-c1nccnc1OC(c1ccccc1)c1ccccc1` [CBK106813], the figure is 93.8%.

As for `O=C(NCCn1cccn1)c1ncoc1-c1ccc(F)cc1` [CBK282355], the viability at 28.5 h, 10 µM was found to be 91.5%. As for `CCNCc1cc2c(C)nn(-c3ccc(F)cc3)c2[nH]c1=O` [CBK283118], the figure is 107%; as for `Cc1cc(C)c2c(CC(=O)N(C)CCN(C)C)c(C)[nH]c2c1` [CBK282732], 83.6%. The figure for `Cc1c(C(=O)N2CCC[C@@H]2CO)nnn1Cc1ccc(F)cc1F` [CBK304071] is 89.2%; for `COc1ccc2c(c1)c(CN1CCCN(S(=O)(=O)c3ccc(-c4ccccc4)cc3)CC1)cn2C` [CBK063125] it is 104%; for `Cc1cc(NC(=O)NC2CCOc3ccccc32)no1` (stereo not drawn) [CBK304581] it is 93.8%. As to `COCCSc1nnc(NS(=O)(=O)c2ccc(F)cc2)s1` [CBK144919], the viability at 28.5 h, 10 µM came to 87.1%.

As for `COc1c(C)cc(-c2ncnc(C)c2C)cc1C` [CBK306884], the viability at 28.5 h, 10 µM turned out to be 67.6%. As for `Cc1coc(C)c1C(=O)CC1(O)C(=O)N(CCc2ccccc2)c2ccccc21` (stereo not drawn) [CBK293975], the figure is 84.8%. For the molecule `COCC(=O)N1CC[C@H](c2nnc(-c3ccncc3)o2)C1` [CBK289413], the viability at 28.5 h, 10 µM was 88%.

Take `O=C(Nc1ccc(N2CCOCC2)c(Cl)c1)c1cccc(-n2cnnc2)c1` [CBK269853]: the viability at 28.5 h, 10 µM was found to be 95.6%.

Take `O=C(NCc1ccc(Cl)cc1)c1cnc(-c2cccc(C(F)(F)F)c2)c(-c2ccncc2)c1` [CBK037607]: the viability at 28.5 h, 10 µM was 84.8%. As for `O=C(CN1CCN(c2ccccn2)CC1)N1c2ccccc2CCc2ccccc21` [CBK268868G], the figure is 98.4%. The figure for `Cc1cccc(-c2ccc(CC3(C(=O)NC(C)C)CCN(C(=O)C4CC4)CC3)cc2)c1` [CBK285757] is 93.3%.

Consider `O=C(NCc1ccc(F)cc1)c1ccc(Cn2ccnc2)cc1` [CBK297719], for which the viability at 28.5 h, 10 µM is 96.3%.

For the molecule `OC(CN1CCC(O)(c2ccc(F)cc2)CC1)c1ccccc1` (stereo not drawn) [CBK282489], the viability at 28.5 h, 10 µM worked out at 104%.

Regarding `CC(=O)c1cccc(-c2cnc(Nc3ccc(N4CCOCC4)cc3)c3nccn23)c1` [CBK091217], the viability at 28.5 h, 10 µM is 91.5%. Turning to `COc1ccc(C(=O)N2CCC3(CCCN(C(=O)CN4C(=O)CSC4=O)C3)C2)cc1OC` (stereo not drawn) [CBK137088], the viability at 28.5 h, 10 µM was 115%.

With `Cc1ccc(CN(C2CCN(C)CC2)S(=O)(=O)c2ccccc2F)cc1` [CBK160444T], the viability at 28.5 h, 10 µM is 90.8%. Consider `CCOC(=O)c1ccccc1NS(C)(=O)=O` [CBK262271], for which the viability at 28.5 h, 10 µM stood at 101%.

For `O=C(Nc1ccc(Cl)cc1)N1CCC(n2c(=O)[nH]c3ccccc32)CC1` [CBK149850], the viability at 28.5 h, 10 µM came to 98.5%. The figure for `O=S(=O)(N1CCOCC1)N1CCCN(S(=O)(=O)N2CCOCC2)CC1` [CBK269068] is 103%; for `COc1ccccc1NC(=O)CN1CCN(CCC(=O)c2ccc(C(C)C)cc2)CC1` [CBK023925C] it is 95%.

Take `CC(C)Nc1nc(NC(C)C)nc(Oc2ccc(C=O)cc2)n1` [CBK265043]: the viability at 28.5 h, 10 µM was 111%. As for `CN(C)S(=O)(=O)c1cccc(C(=O)NCc2ccco2)c1` [CBK270135], the figure is 94.7%; as for `CC(C)(C)OC(=O)c1cc(C(=O)O)ccc1O` [CBK000394], 90%; as for `CCOC(=O)c1[nH]c2ccccc2c1NC(=O)c1ccc(Br)cc1Cl` [CBK160147], 91.3%. For the molecule `Cc1cccc(CN(CC(C)(C)CN)C(=O)NC(C)c2cccc3ccccc23)n1` (stereo not drawn) [CBK002423C], the viability at 28.5 h, 10 µM was 84.4%. The figure for `Cc1nc2ccc(NC(=S)N3c4ccccc4CC3C)cc2nc1C` (stereo not drawn) [CBK263169] is 62.5%; for `Cc1c(C(=O)O)sc2nc(SC/C=C/c3ccccc3)nc(N)c12` [CBK300523] it is 83.4%. The figure for `COc1ccccc1-c1nc(C2CCCN2C(=O)CCCC(=O)O)n2ccccc12` (stereo not drawn) [CBK046600] is 90.3%; for `O=C(O)Cc1cnnn1-c1ccc(Cl)cc1Cl` [CBK288035] it is 86%; for `CN(C)c1ccc(C(=O)N2C3CCC2CC(O)(c2ccco2)C3)cc1` (stereo not drawn) [CBK284117] it is 93.3%. The figure for `COc1ccc(Nc2cc(-n3nc(C)cc3-c3ccccc3)ncn2)cc1` [CBK293925] is 104%; for `c1cncc(-c2csc(Nc3nc4cc5c(cc4s3)OCO5)n2)c1` [CBK287490] it is 87.2%; for `COc1ccc(N2C(=O)CC(N3CCN(c4ccc(C(=O)c5cccnc5)cc4)CC3)C2=O)cc1` (stereo not drawn) [CBK268924] it is 92.7%. In the case of `O=C(OCCC1SC(NC2CC3C=CC2C3)=NC1=O)c1cc(C(F)(F)F)cc(C(F)(F)F)c1` (stereo not drawn) [CBK056857T], the viability at 28.5 h, 10 µM amounted to 100%.

The viability is a read-out of living cells in per cent, often relative to untreated cells.

These data come from article PMC12040169 (PLOS Biology, 2025).
